Test results taken from patent US20230372348A1, “LIPID FORMULATIONS OF TRIAZOLOQUINAZOLINONE COMPOUNDS” (Gabather AB, priority 2020, published 2023).

What was measured:
[1] = test system: benzodiazepine site of the GABAA receptor complex; details: cited from earlier work
[2] = Single dose pharmacokinetic evaluation of formulations in male Sprague Dawley rats; type: in vivo; details: plasma, iv, rat
Description: Single dose pharmacokinetic evaluations of formulations F12-F22 were carried out using male Sprague Dawley rats using conditions as described in Table 1.
Animal ID's were labelled by pen marks on tail and body weight was recorded for calculation of test item volume before administration. Blood was collected capillary from vena saphena from the rats in EDTA coated collection tubes and centrifuged for five minutes at 2000G. Plasma was transferred to pre-labelled Eppendorf tubes and immediately stored in −20° C. The pharmacokinetic analysis was performed using PK Solutions 2.0™, Noncompartmental Pharmacokinetic Data Analysis software.
Cmax (nM) is the maximum concentration. AUC 0-24 (nM*h) is the area under the curve over 24 hours. Tmax (h) is the maximum time in hours. F % is bioavailability. Frel % is the relative bioavailability.

[3] = Single ascending dose (SAD) study, pharmacokinetics in healthy male subjects; type: in vivo, human
Description: Lipid formulations containing PHOSAL® 53 MCT delivered higher exposure in rat and dog when compared to other formulation (e.g., nanosuspension formulation and PEG formulations). […] Formulation 1H containing 70% PHOSAL® 53 MCT and 30% Labrasol® ALF was selected for manufacturing of soft gelatin capsules for clinical trials with a drug formulation fill weight of 500 mg and a total capsule weight is 696 mg. Two dose strength (0.1 mg/subject and 2 mg/subject) and placebo were produced according to GMP for clinical testing.
The clinical development programme in healthy volunteers started with a double-blind, randomised, placebo controlled single ascending dose (SAD) study in males. Seven dose cohorts received increasing oral doses of Compound (1a) or placebo, dose range 0.05-2 mg. Each cohort consisted of 5-6 subjects receiving Compound (1a) and 2 subjects receiving placebo, with the primary objective to evaluate safety and tolerability, the secondary objective being evaluation of pharmacokinetics (PK).
A summary of PK results from the SAD study are shown below in Table 8.

bioavailability ([2]; intravenously 1 mg/kg (reference), read-out: F % (bioavailability)): 100%
AUC(0-t) ([2]; intravenously 1 mg/kg, read-out: AUC 0-24): 1.18 µM·h
dose proportionality of Cmax ([3]; dose range 0.05 mg-2 mg): dose proportional
dose proportionality of exposure ([3]; dose range 0.05 to 2 mg, oral soft gelatin capsules, fasting healthy male volunteers): close to dose proportional
Structure (SMILES): Cc1ccc(-n2nc3c4cc(Cc5ccccc5)ccc4[nH]c(=O)n3c2=O)cc1 [Compound (1a), 9-benzyl-2-(4-methylphenyl)-2,6-dihydro[1,2,4]triazolo[4,3-c]quinazoline-3,5-dione]
selectivity [1]: selective for the GABAA receptor complex
inhibition of 3H-Flumazenil binding ([1]; rat membrane preparations): very potent inhibitor
potency in displacing 3H-Flumazenil relative to diazepam ([1]; rat membrane preparations, more potent than diazepam): 10 times
